Assay [1] deals with T1, BCL6 (Homo sapiens (Human), UniProt P41182). Briefly: BCL6 TR-FRET assay (BCL6-Avitag-Biotin / BCoR-Cy5 peptide). It counts as binding. Here is the method: Protein Synthesis. BCL6 protein was expressed by transforming Invitrogen One Shot cells with GS63525 pET24a-His-SUMO-TEV-BCLm-Avitag plasmid following manufacturer's instructions. In addition, biotin at a final concentration of 50 μM, and IPTG at a final concentration of 1 mM was added to the culture and incubated at room temperature shaking overnight.
Assay buffer A: 50 mM HEPES pH 7.5, 125 mM NaCl, 0.01% TritonX.
Assay buffer B (made fresh): buffer A+1 mM Glutathione (or 0.5 mM DTT).
Assay buffer C (made fresh): buffer B+0.03% BSA.
Black Proxy plates, 96 well.
15 μl final reaction volumes (BCoR-Cy5 100 nM, SA-Eu 2 nM, BCL6-avitag 2 nM).
[…] BCL6-Avitag-Biotin stock: made fresh by adding 2 μl of BCL6-Avitag-Biotin to 31.5 ml Buffer C.
1 mM BCoR-Cy5 peptide (LifeTein) stock in Dimethylformamide (DMF).
300 nM BCoR-Cy5 working stock: made fresh by adding 4.5 μl of the 1 mM BCoR-Cy5 peptide stock to 15 ml Buffer B.
10 μM Eu-Streptavidin (Lance Eu-W1024 Streptavidin, PerkinElmer) stock solution.
6 nM Eu-Streptavidin working stock: made fresh by adding 9 μl Eu-Streptavidin stock solution to 15 ml Buffer A.
Compounds were diluted to 10 mM. Twenty microliters of DMSO was aliquoted to each well of the microtiter plates. From the 10 mM compound stock, 8.7 ul was aliquoted to the 20 ul DMSO and 3-fold serial dilutions (12 pt 3-0.01 uM tritration plate, 96 well, 100% DMSO) performed. Five ul from the titration plate wells was aliquoted to 45 ul Buff C (Intermediate dilution plates, 10% DMSO).
Spot 1.5 μl compound titrations to 384-well plates in duplicate, and spot 3.5 μl [8.5 nM] BCL6-bio protein to each well. The plate was mix briefly, centrifuged, and incubated for 30 minutes at room temperature.
Mix 14 mls of BCoR-Cy5 [300 nM] and 14 mls [6 nM] Eu-Streptavidin. Spot 10 μl BCoR-Cy5/SA-Eu (1:1) mix to each well. The plates were incubated for 2 hours and then read on an Envision plate reader.
(TR-FRET usually uses a lanthanide donor and a delayed reading to cut background.)

Assay [2] concerns the target T1, BCL6. Description: Immunofluorescence high content imaging of BCL6 degradation in T47D cells. Type of assay: cell-based. The note with it: for Dmax: T47D, maximum, class symbols A-C; for DC50: class symbols A-D, read-out: EC50 (nM)*. In short, it runs like this:
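T47D cells were treated for 3 days at 37 °C with 11-point 3-fold dilutions of bifunctional degrader (final top 0.1 or 1 μM). BCL6 was detected by immunofluorescence after PFA fixation, with Hoechst and cell mask counterstains, and imaged at 10×, 4 fields/well.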

The mark [3] stands for this setting: class symbols A-D, read-out: IC50 (nM)***.

Like-named read-outs stand apart in the source and are kept apart here.

Broadly, the IC50 is the concentration that inhibits the measured activity by half. As a reminder, the Dmax is the greatest extent of degradation seen. Higher therefore signals a fuller loss of target.

Regarding `CNC(=O)COc1cc2cc(Nc3nc(N4CCC(OCCOCCOCCOCCOCCOc5ccc6c(c5)CN(C5CCC(=O)NC5=O)C6=O)CC4)ncc3Cl)ccc2n(C)c1=O` (stereo not shown) [compound 62, 2-((6-((5-chloro-2-(4-((14-((2-(2,6-dioxopiperidin-3-yl)-1-oxoisoindolin-5-yl)oxy)-3,6,9,12-tetraoxatetradecyl)oxy)piperidin-1-yl)pyrimidin-4-yl)amino)-1-methyl-2-oxo-1,2-dihydroquinolin-3-yl)oxy)-N-methylacetamide], the IC50 in assay [1] (setting [3]) was in the range of 10 to 50 nM. Besides, in assay [2], the Dmax was not below 70% and the DC50 was more than 100 nM.
For `CNC(=O)COc1cc2cc(Nc3nc(N4CCC(CN5CCN(c6ccc7c(c6)C(=O)N(C6CCC(=O)NC6=O)C7=O)CC5)CC4)ncc3Cl)ccc2n(C)c1=O` (stereo not shown) [compound 104, 2-((6-((5-chloro-2-(4-((4-(2-(2,6-dioxopiperidin-3-yl)-1,3-dioxoisoindolin-5-yl)piperazin-1-yl)methyl)piperidin-1-yl)pyrimidin-4-yl)amino)-1-methyl-2-oxo-1,2-dihydroquinolin-3-yl)oxy)-N-methylacetamide], in that order: 10 to 50 nM, 50 to 70% and 10 to 50 nM.
In the same order, the values of `CNC(=O)COc1cc2cc(Nc3nc(N4CCC(OCCN5CCN(Cc6ccc(C#Cc7ccc8c(c7)CN(C7CCC(=O)NC7=O)C8=O)cc6)CC5)CC4)ncc3Cl)ccc2n(C)c1=O` (stereo not shown) [compound 119, 2-((6-((5-chloro-2-(4-(2-(4-(4-((2-(2,6-dioxopiperidin-3-yl)-1-oxoisoindolin-5-yl)ethynyl)benzyl)piperazin-1-yl)ethoxy)piperidin-1-yl)pyrimidin-4-yl)amino)-1-methyl-2-oxo-1,2-dihydroquinolin-3-yl)oxy)-N-methylacetamide] are less than 10 nM, less than 50% and 10 to 50 nM.
For `CNC(=O)COc1cc2cc(Nc3nc(N4CCCC(COc5ccc(C6CCN(CCC(O)c7ccc8c(c7)CN(C7CCC(=O)NC7=O)C8=O)CC6)cc5)C4)ncc3Cl)ccc2n(C)c1=O` (stereo not shown) [compound 127, 2-((6-((5-chloro-2-(3-((4-(1-(3-(2-(2,6-dioxopiperidin-3-yl)-1-oxoisoindolin-5-yl)-3-hydroxypropyl)piperidin-4-yl)phenoxy)methyl)piperidin-1-yl)pyrimidin-4-yl)amino)-1-methyl-2-oxo-1,2-dihydroquinolin-3-yl)oxy)-N-methylacetamide], in that order: less than 10 nM, less than 50% and 10 to 50 nM.
Take `CC(=O)COc1cc2cc(Nc3nc(N4CCC(OCCN5CCN(c6ccc7c(c6)CN(C6CCC(=O)NC6=O)C7=O)CC5)CC4)ncc3Cl)ccc2n(C)c1=O` (stereo not shown) [compound 128, 3-(5-(4-(2-((1-(5-chloro-4-((1-methyl-2-oxo-3-(2-oxopropoxy)-1,2-dihydroquinolin-6-yl)amino)pyrimidin-2-yl)piperidin-4-yl)oxy)ethyl)piperazin-1-yl)-1-oxoisoindolin-2-yl)piperidine-2,6-dione]: the IC50 in assay [1] (setting [3]) was less than 10 nM. For the same compound, in assay [2], the Dmax was less than 50% and the DC50 was less than 10 nM.
Take `CC(=O)COc1cc2cc(Nc3nc(N4CCN(CCCN5CCN(c6ccc7c(c6)CN(C6CCC(=O)NC6=O)C7=O)CC5)CC4)ncc3Cl)ccc2n(C)c1=O` (stereo not shown) [compound 137, 3-(5-(4-(3-(4-(5-chloro-4-((1-methyl-2-oxo-3-(2-oxopropoxy)-1,2-dihydroquinolin-6-yl)amino)pyrimidin-2-yl)piperazin-1-yl)propyl)piperazin-1-yl)-1-oxoisoindolin-2-yl)piperidine-2,6-dione]: in assay [1] (setting [3]), the IC50 is less than 10 nM. For the same compound, in assay [2], the Dmax is less than 50% and the DC50 was 10 to 50 nM.
In the same order, the values of `CNC(=O)COc1cc2cc(Nc3nc(N4CCC(N(C)C5CCN(CC6CCN(c7ccc(C#Cc8ccc9c(c8)CN(C8CCC(=O)NC8=O)C9=O)cc7)CC6)CC5)CC4)ncc3Cl)ccc2n(C)c1=O` (stereo not shown) [compound 138, 2-((6-((5-chloro-2-(4-((1-((1-(4-((2-(2,6-dioxopiperidin-3-yl)-1-oxoisoindolin-5-yl)ethynyl)phenyl)piperidin-4-yl)methyl)piperidin-4-yl) (methyl)amino)piperidin-1-yl)pyrimidin-4-yl)amino)-1-methyl-2-oxo-1,2-dihydroquinolin-3-yl)oxy)-N-methylacetamide] are less than 10 nM, less than 50% and 10 to 50 nM.
As to `CNC(=O)COc1cc2cc(Nc3nc(N4CCC(O[C@@H]5C[C@@H](Oc6cccc7c6C(=O)N(C6CCC(=O)NC6=O)C7=O)CN(C)C5)CC4)ncc3Cl)ccc2n(C(C)C)c1=O` (stereo partly drawn) [compound 479, 2-[(6-{[5-chloro-2-(4-{[(3R,5R)-5-{[2-(2,6-dioxopiperidin-3-yl)-1,3-dioxo-2,3-dihydro-1H-isoindol-4-yl]oxy}-1-methylpiperidin-3-yl]oxy}piperidin-1-yl)pyrimidin-4-yl]amino}-2-oxo-1-(propan-2-yl)-1,2-dihydroquinolin-3-yl)oxy]-N-methylacetamide], in assay [1] (read-out: IC50), the IC50 was not below 100 nM.
On the same count and under the same terms, then `CNC(=O)COc1cc2cc(Nc3nc(N4CCC(O[C@@H]5C[C@H](COc6cccc7c6C(=O)N(C6CCC(=O)NC6=O)C7=O)N(C)C5)CC4)ncc3Cl)ccc2n(C(C)C)c1=O` (stereo partly drawn) [compound 486, 2-[(6-{[5-chloro-2-(4-{[(3R,5R)-5-({[2-(2,6-dioxopiperidin-3-yl)-1,3-dioxo-2,3-dihydro-1H-isoindol-4-yl]oxy}methyl)-1-methylpyrrolidin-3-yl]oxy}piperidin-1-yl)pyrimidin-4-yl]amino}-2-oxo-1-(propan-2-yl)-1,2-dihydroquinolin-3-yl)oxy]-N-methylacetamide], with not below 100 nM; and `CNC(=O)COc1cc2cc(Nc3nc(N4CCC(O[C@@H]5C[C@H](Oc6cccc7c6C(=O)N(C6CCC(=O)NC6=O)C7=O)CN(C)C5)CC4)ncc3Cl)ccc2n(C(C)C)c1=O` (stereo partly drawn) [compound 487, 2-[(6-{[5-chloro-2-(4-{[(3R,5S)-5-{[2-(2,6-dioxopiperidin-3-yl)-1,3-dioxo-2,3-dihydro-1H-isoindol-4-yl]oxy}-1-methylpiperidin-3-yl]oxy}piperidin-1-yl)pyrimidin-4-yl]amino}-2-oxo-1-(propan-2-yl)-1,2-dihydroquinolin-3-yl)oxy]-N-methylacetamide], with not below 100 nM.
Still for that read-out and setting: next, `CNC(=O)COc1cc2cc(Nc3nc(N4CCC(CN5CCC6(CC5)CCN(c5ccc(N7CCC(=O)NC7=O)c(OC)c5)C6)CC4)ncc3Cl)ccc2n(C(C)C)c1=O` [compound 509, 2-{[6-({5-chloro-2-[4-({2-[4-(2,4-dioxo-1,3-diazinan-1-yl)-3-methoxyphenyl]-2,8-diazaspiro[4.5]decan-8-yl}methyl)piperidin-1-yl]pyrimidin-4-yl}amino)-2-oxo-1-(propan-2-yl)-1,2-dihydroquinolin-3-yl]oxy}-N-methylacetamide]: not below 100 nM.
Same read-out and setting: then `CNC(=O)COc1cc2cc(Nc3nc(N4CCC(N5CCC6(CCN(c7cccc8c7C(=O)N(C7CCC(=O)NC7=O)C8=O)C6)CC5)CC4)ncc3Cl)ccc2n(C(C)C)c1=O` (stereo not shown) [compound 528, 2-[(6-{[5-chloro-2-(4-{2-[2-(2,6-dioxopiperidin-3-yl)-1,3-dioxo-2,3-dihydro-1H-isoindol-4-yl]-2,8-diazaspiro[4.5]decan-8-yl}piperidin-1-yl)pyrimidin-4-yl]amino}-2-oxo-1-(propan-2-yl)-1,2-dihydroquinolin-3-yl)oxy]-N-methylacetamide], with 10 to 50 nM; and `CNC(=O)COc1cc2cc(Nc3nc(N4CCC(CN5CCCN(c6ccc(OC)c(N7CCC(=O)NC7=O)c6)CC5)CC4)ncc3Cl)ccc2n(C(C)C)c1=O` [compound 530, 2-{[6-({5-chloro-2-[4-({4-[3-(2,4-dioxo-1,3-diazinan-1-yl)-4-methoxyphenyl]-1,4-diazepan-1-yl}methyl)piperidin-1-yl]pyrimidin-4-yl}amino)-2-oxo-1-(propan-2-yl)-1,2-dihydroquinolin-3-yl]oxy}-N-methylacetamide], with 10 to 50 nM; and `CNC(=O)COc1cc2cc(Nc3nc(N4CCC(CN5CCCN(c6cccc(N7CCC(=O)NC7=O)c6OC)CC5)CC4)ncc3Cl)ccc2n(C(C)C)c1=O` [compound 535, 2-{[6-({5-chloro-2-[4-({4-[3-(2,4-dioxo-1,3-diazinan-1-yl)-2-methoxyphenyl]-1,4-diazepan-1-yl}methyl)piperidin-1-yl]pyrimidin-4-yl}amino)-2-oxo-1-(propan-2-yl)-1,2-dihydroquinolin-3-yl]oxy}-N-methylacetamide], with 10 to 50 nM.

Values taken from patent US12310975B2, “Modulators of BCL6 proteolysis and associated methods of use” (Arvinas Operations, Inc., priority 2019, dated 2025).
